Source: US11780845B2 (Relay Therapeutics, Inc., priority 2019, dated 2023)
pIC50: −log10 of the molar value.

Tests used:
FGFR2 = FGFR2 (Homo sapiens (Human), UniProt P21802); test: Biochemical FGFR2 Caliper assay
SNU-16 = test: Cell SNU-16 assay; type: cell-based; settings: Homo sapiens, SNU-16, SNU-16 cells

Chain of FGFR2 (P21802 22-821): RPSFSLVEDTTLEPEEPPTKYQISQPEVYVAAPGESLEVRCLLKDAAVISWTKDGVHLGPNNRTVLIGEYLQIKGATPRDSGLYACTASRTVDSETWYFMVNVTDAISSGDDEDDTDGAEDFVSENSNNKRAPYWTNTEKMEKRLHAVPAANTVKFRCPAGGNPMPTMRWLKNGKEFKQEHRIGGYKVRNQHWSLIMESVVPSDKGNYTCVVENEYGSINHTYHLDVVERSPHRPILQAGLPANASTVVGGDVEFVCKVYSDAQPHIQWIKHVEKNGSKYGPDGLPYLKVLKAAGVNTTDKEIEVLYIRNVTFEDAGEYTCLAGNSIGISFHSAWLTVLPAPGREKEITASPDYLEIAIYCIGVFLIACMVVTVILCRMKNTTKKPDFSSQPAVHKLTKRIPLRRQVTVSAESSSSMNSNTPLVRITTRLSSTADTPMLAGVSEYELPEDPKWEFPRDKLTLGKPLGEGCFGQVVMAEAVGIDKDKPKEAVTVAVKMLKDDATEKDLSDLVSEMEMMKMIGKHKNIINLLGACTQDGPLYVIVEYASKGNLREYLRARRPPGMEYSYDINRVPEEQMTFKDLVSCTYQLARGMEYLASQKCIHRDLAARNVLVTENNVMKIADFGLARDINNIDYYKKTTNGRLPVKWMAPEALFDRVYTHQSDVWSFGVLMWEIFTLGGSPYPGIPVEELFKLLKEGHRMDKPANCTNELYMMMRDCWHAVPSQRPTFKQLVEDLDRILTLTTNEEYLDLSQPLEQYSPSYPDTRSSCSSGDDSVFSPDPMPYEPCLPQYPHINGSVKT

| SMILES | pIC50 (FGFR2) | pIC50 (SNU-16) |
| --- | --- | --- |
| C#Cc1ccc(-c2c(C3=CC[C@H](C(=O)N4CCCC45COC5)CC3)c3c(N)ncnc3n2C)c(C)n1 [Example 1304] | 6.00 to 6.60 | 6.00 to 6.60 |
| C#Cc1ncc(-c2c(-c3ccc(C(=O)N(C)CC(C)C)cc3)c3c(N)ncnc3n2C)c(C)c1F [Example 1305] | > 7.00 | ≥ 7.00 |
| C#Cc1ncc(-c2c(-c3ccc(C(=O)NCC(C)C)cc3)c3c(N)ncnc3n2C)c(C)c1F [Example 1306] | > 7.00 | ≥ 7.00 |
| CNC(=O)/C(C#N)=C/c1ccc(-c2c(-c3ccc(Oc4nccc(C)n4)c(F)c3)c3c(N)ncnc3n2C)c(C)c1 [Example 1309] | > 7.00 | 6.00 to 6.60 |
| C#Cc1ncc(-c2c(-c3ccc(Oc4nccc(C)n4)cc3F)c3c(N)ncnc3n2C)c(C)c1F [Example 1310] | > 7.00 | ≥ 7.00 |
| C=C1CCc2cc(-c3c(-c4ccc(Oc5nccc(C)n5)cc4)c4c(N)ncnc4n3C)ccc2C1=O [Example 1311] | > 7.00 | 6.00 to 6.60 |
| CC#Cc1cnc(-c2c(-c3ccc(Oc4nccc(C)n4)c(F)c3)c3c(N)ncnc3n2C)c(C)n1 [Example 1312] | 6.00 to 6.60 | 6.60 to 7.00 |
| C#Cc1ncc(-c2c(-c3ccc(Oc4nccc(C)n4)c(F)c3)c3c(N)ncnc3n2C)c(C)c1F [Example 1313] | > 7.00 | ≥ 7.00 |
| C#Cc1cnc(-c2c(-c3ccc(Oc4nccc(C)n4)c(F)c3)c3c(N)ncnc3n2C)c(CN(C)C)c1 [Example 1314] | 6.60 to 7.00 | ≥ 7.00 |
| C=CC(=O)Nc1ccc(-c2c(-c3ccc(-n4cc(C)cn4)nc3)c3c(C)ncnc3n2C)cc1 [Example 1315] | 6.60 to 7.00 | 6.00 to 6.60 |
| C#Cc1cc(C)c(-c2c(C3=CC[C@H](C(=O)N4CCC[C@H]4C)CC3)c3c(N)ncnc3n2C)c(F)n1 [Example 1319] | > 7.00 | ≥ 7.00 |
| C#Cc1nc2cc(-c3c(C4=CC[C@@H](C(=O)N5CCC[C@H]5COC)CC4)c4c(N)ncnc4n3C)ccc2[nH]1 [Example 1320] | > 7.00 | 6.00 to 6.60 |
| C#Cc1cc(C)c(-c2cn3ncnc(N)c3c2-c2ccc(Oc3nccc(C)n3)c(F)c2)cn1 [Example 1321] | > 7.00 | ≥ 7.00 |
| C#Cc1cc(C)c(-c2c(-c3ccc(Oc4nccc(C)n4)c(F)c3)c3c(N)ncnc3n2C)c(F)n1 [Example 1322] | > 7.00 | ≥ 7.00 |
| C#Cc1cc(C)c(-c2c(C3=CC[C@H](C(=O)N4CCCC45CC5)CC3)c3c(N)ncnc3n2C)cn1 [Example 1325] | 6.00 to 6.60 | 6.00 to 6.60 |
| C#Cc1cc(C)c(-c2c(-c3ccc(Oc4nccc(C)n4)cn3)c3c(N)ncnc3n2C)cn1 [Example 1327] | > 7.00 | ≥ 7.00 |
| C#Cc1ncc(-c2c(-c3ccc(Oc4nccc(C)n4)cn3)c3c(N)ncnc3n2C)c(C)c1F [Example 1328] | > 7.00 | ≥ 7.00 |
| C#Cc1ncc(-c2c(-c3ccc(Oc4nccc(C)n4)c(F)c3)c3c(N)ncnc3n2C(C)C)c(C)c1F [Example 1334] | > 7.00 | ≥ 7.00 |
| C#Cc1ncc(-c2c(-c3ccc(Oc4nccc(C)n4)c(F)c3)c3c(N)ncnc3n2C)c(OC)c1F [Example 1336] | > 7.00 | ≥ 7.00 |
| C=C(C)C(=O)Nc1ccc(-c2c(C3=CC[C@]4(CC3)Cc3ccc(OC)nc3C4=O)c3c(N)ncnc3n2C)cc1 [Example 1337] | 6.60 to 7.00 | ≥ 7.00 |

| SMILES | pIC50 (FGFR2) | pIC50 (SNU-16) |
| --- | --- | --- |
| C#Cc1cc(C)c(-c2c(C3=CC[C@@H](C(=O)N4CCCC45CC5)CC3)c3c(N)ncnc3n2C)cn1 [Example 1341] | > 7.00 | 6.00 to 6.60 |
| C#Cc1nc2cc(-c3c(C4=CC[C@H](C(=O)N5CCC[C@H]5COC)CC4)c4c(N)ncnc4n3C)ccc2[nH]1 [Example 1346] | > 7.00 | 6.00 to 6.60 |
| C#Cc1cc(C)c(-c2c(C3=CC[C@@H](C(=O)N4CCC[C@H]4C)CC3)c3c(N)ncnc3n2C)c(F)n1 [Example 1347] | > 7.00 | ≥ 7.00 |
| C=Cc1ccc(-c2c(-c3ccc4nn[nH]c4c3)c3c(N)ncnc3n2C)cn1 [Example 1352] | > 7.00 | ≥ 7.00 |
| C#Cc1ncc(-c2c(-c3ccc(Oc4nccc(C)n4)c(F)c3)c3c(N)ncnc3n2C)c(C)c1OC [Example 1353] | > 7.00 | ≥ 7.00 |
| C#Cc1cc(OC)c(-c2c(C3=CC[C@@H](C(=O)N4CCC[C@H]4C)CC3)c3c(N)ncnc3n2C)cn1 [Example 1354] | > 7.00 | ≥ 7.00 |
| C#Cc1cc(OC)c(-c2c(C3=CC[C@H](C(=O)N4CCC[C@H]4C)CC3)c3c(N)ncnc3n2C)cn1 [Example 1355] | > 7.00 | ≥ 7.00 |
| C#Cc1cc(C)c(-c2c(-c3ccc(Oc4nccc(C)n4)c(F)c3)c3c(Cl)ncnc3n2C)cn1 [Example 1356] | > 7.00 | ≥ 7.00 |
| C#Cc1cnc(-c2c(-c3ccc(Oc4nccc(C)n4)c(F)c3)c3c(N)ncnc3n2C)c(C)n1 [Example 1358] | > 7.00 | ≥ 7.00 |
| C#Cc1nc2cc(-c3c(-c4ccc(Oc5nccc(C)n5)c(F)c4)c4c(N)ncnc4n3C)ccc2n1C [Example 1359] | > 7.00 | ≥ 7.00 |
| C#Cc1cnc2cc(-c3c(-c4ccc(Oc5nccc(C)n5)c(F)c4)c4c(N)ncnc4n3C)ccc2n1 [Example 1363] | > 7.00 | ≥ 7.00 |
| C#Cc1nc2cc(-c3c(-c4ccc(Oc5nccc(C)n5)c(F)c4)c4c(C)ncnc4n3C)ccc2[nH]1 [Example 1364] | > 7.00 | ≥ 7.00 |
| C#Cc1ncc(-c2c(-c3ccc(Oc4nccc(C)n4)c(F)c3)c3c(N)ncnc3n2C)c(C)c1C [Example 1365] | > 7.00 | ≥ 7.00 |
| C#Cc1cc(C)c(-c2c(-c3ccc(Oc4nc(C)cc(C)n4)c(F)c3)c3c(N)ncnc3n2C)cn1 [Example 1368] | > 7.00 | ≥ 7.00 |
| C#Cc1nc2cc(-c3c(C4=CC[C@@H](C(=O)N5CCCC5)CC4)c4c(N)ncnc4n3C)ccc2n1C [Example 1369] | > 7.00 | ≥ 7.00 |
| C=CC(=O)NC1CC=C(c2c(-c3ccc(Oc4nccc(C)n4)c(F)c3)c3c(N)ncnc3n2C)CC1 (stereo not drawn) [Example 1370] | 6.60 to 7.00 | 6.60 to 7.00 |
| COCC#Cc1cc(C)c(-c2c(-c3ccc(Oc4nccc(C)n4)c(F)c3)c3c(C)ncnc3n2C)cn1 [Example 1374] | 6.00 to 6.60 | 6.60 to 7.00 |
| C#Cc1cc(F)c(-c2c(-c3ccc(Oc4nccc(C)n4)c(F)c3)c3c(C)ncnc3n2C)cn1 [Example 1375] | > 7.00 | ≥ 7.00 |
| C=CC(=O)N[C@@H]1CC=C(c2c(-c3ccc(Oc4nccc(C)n4)c(F)c3)c3c(N)ncnc3n2C)CC1 [Example 1376] | 6.00 to 6.60 | 6.60 to 7.00 |
| C=CC(=O)N[C@H]1CC=C(c2c(-c3ccc(Oc4nccc(C)n4)c(F)c3)c3c(N)ncnc3n2C)CC1 [Example 1377] | 6.00 to 6.60 | 6.00 to 6.60 |

Other lines, results leading:

| pIC50 (FGFR2) | pIC50 (SNU-16) | SMILES |
| --- | --- | --- |
| 4.00 to 6.00 | 4.00 to 6.00 | C=C(C)C(=O)Nc1ccc(-c2c(-c3ccc(N)nc3)c3c(N)ncnc3n2C)cc1 [Example 1295] |
| 6.60 to 7.00 | 6.00 to 6.60 | C=C(C)C(=O)Nc1ccc(-c2c(-c3ccc4[nH]ccc4c3)c3c(N)ncnc3n2C)cc1 [Example 1296] |
| 6.00 to 6.60 | 6.00 to 6.60 | C=C(C)C(=O)Nc1ccc(-c2c(-c3ccc4cc[nH]c4c3)c3c(N)ncnc3n2C)cc1 [Example 1297] |
| 6.00 to 6.60 | 4.00 to 6.00 | C=C(C)C(=O)Nc1ccc(-c2c(-c3cccc(O)c3)c3c(N)ncnc3n2C)cc1 [Example 1298] |
| 4.00 to 6.00 | 4.00 to 6.00 | C=C(C)C(=O)Nc1ccc(-c2c(-c3cccc(N)c3)c3c(N)ncnc3n2C)cc1 [Example 1299] |
| 4.00 to 6.00 | 4.00 to 6.00 | C=C(C)C(=O)Nc1ccc(-c2c(-c3ccc(-c4cc(=O)[nH][nH]4)cc3)c3c(N)ncnc3n2C)cc1 [Example 1300] |
| 4.00 to 6.00 | 4.00 to 6.00 | C=C(C)C(=O)Nc1ccc(-c2c(-c3ccc4cn[nH]c4c3)c3c(N)ncnc3n2C)cc1 [Example 1301] |
| 4.00 to 6.00 | 4.00 to 6.00 | C=C(C)C(=O)Nc1ccc(-c2c(-c3ccc4nn[nH]c4c3)c3c(N)ncnc3n2C)cc1 [Example 1302] |
| 4.00 to 6.00 | 4.00 to 6.00 | C=C(C)C(=O)Nc1ccc(-c2c(-c3ccc(NC(=O)OCC)nc3)c3c(N)ncnc3n2C)cc1 [Example 1303] |
| 6.00 to 6.60 | 6.00 to 6.60 | C=C(C)C(=O)Nc1ccc(-c2c(-c3ccc(-n4cc(CC)cn4)nc3)c3c(N)ncnc3n2C)cc1 [Example 1316] |
| 4.00 to 6.00 | 4.00 to 6.00 | C=C(C)C(=O)Nc1ccc(-c2c(-c3ccc4c(C(=O)NC5CC5)n[nH]c4c3)c3c(N)ncnc3n2C)cc1 [Example 1323] |
| 4.00 to 6.00 | 4.00 to 6.00 | C=C(C)C(=O)Nc1ccc(-c2c(-c3ccc4c(C(=O)NCC5CC5)n[nH]c4c3)c3c(N)ncnc3n2C)cc1 [Example 1324] |
| 4.00 to 6.00 | 4.00 to 6.00 | C=C(C)C(=O)Nc1ccc(-c2c(C3=CC[C@@]4(CC3)Cc3ccc(OC)nc3C4=O)c3c(N)ncnc3n2C)cc1 [Example 1338] |
| 4.00 to 6.00 | 4.00 to 6.00 | C=C(C)C(=O)Nc1ccc(-c2c(-c3ccc4ncnn4c3)c3c(N)ncnc3n2C)cc1 [Example 1343] |
| 4.00 to 6.00 | 4.00 to 6.00 | C=C(C)C(=O)Nc1ccc(-c2c(-c3ccc4nccn4c3)c3c(N)ncnc3n2C)cc1 [Example 1345] |
| 4.00 to 6.00 | 4.00 to 6.00 | C=C(C)C(=O)Nc1ccc(-c2c(-c3ccn4ncnc4c3)c3c(N)ncnc3n2C)cc1 [Example 1350] |
| 4.00 to 6.00 | 4.00 to 6.00 | C=C(C)C(=O)Nc1ccc(-c2c(-c3cnc4nncn4c3)c3c(N)ncnc3n2C)cc1 [Example 1351] |
| 4.00 to 6.00 | 6.00 to 6.60 | C=C(C)C(=O)Nc1ccc(-c2c(-c3ccc(-c4ccccc4O)nc3)c3c(N)ncnc3n2C)cc1 [Example 1371] |
| 4.00 to 6.00 | 4.00 to 6.00 | C=C(C)C(=O)Nc1ccc(-c2c(-c3ccc(-c4cccc(O)c4)nc3)c3c(N)ncnc3n2C)cc1 [Example 1372] |
| > 7.00 | 6.60 to 7.00 | C=C(C)C(=O)Nc1ccc(-c2c(-c3ccc(-c4noc(C5CC5)n4)c(O)c3)c3c(N)ncnc3n2C)cc1 [Example 1373] |
